Experimental data: the supplement of paper PMC12350171

What was measured:
[1] = tested on: Com21 synthetic gut community; experiment: community biomass OD578 after 24 h drug treatment relative to untreated (fraction of untreated control); higher = more community growth; conditions: community: Com21 (Com20 + E. coli ED1a)
Experimental: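 Com21 (Com20 plus E. coli ED1a) was treated with drug for 24 h under anaerobic conditions in mGAM. Community OD578 was then measured and normalised to untreated Com21; mean of 3 biological replicates.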

Shigella flexneri = experiment: IC25 growth inhibition; higher = less potent
Procedure, shortened: (§1)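 Under anaerobic conditions, OD578 was read hourly in a plate reader for at least three biological replicates of monocultures grown overnight in mGAM. Each culture started at an OD578 of 0.01 in pre-reduced plates holding twofold drug dilutions and 1% DMSO (or water). IC25 was reported as a tested interval: the lowest concentration where the monotonic median area under the growth curve dropped below the cutoff. That cutoff was 0.75.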

Bacteroides fragilis NT = experiment: IC25 growth inhibition; higher = less potent
Procedure, shortened: as §1

[2] = tested on: Yersinia pseudotuberculosis; experiment: IC25 growth inhibition; higher = less potent
Procedure, shortened: as §1

Collinsella aerofaciens = experiment: IC25 growth inhibition; higher = less potent
Procedure, shortened: as §1

Coprococcus comes = experiment: IC25 growth inhibition; higher = less potent
Procedure, shortened: as §1

[3] = tested on: Clostridium saccharolyticum; experiment: IC25 growth inhibition; higher = less potent
Procedure, shortened: as §1

Clostridium ramosum = experiment: IC25 growth inhibition; higher = less potent
Procedure, shortened: as §1

[4] = tested on: Fusobacterium nucleatum subsp. Nucleatum; experiment: IC25 growth inhibition; higher = less potent
Procedure, shortened: as §1

Bacteroides uniformis = experiment: IC25 growth inhibition; higher = less potent
Procedure, shortened: as §1

[5] = tested on: Streptococcus parasanguinis; experiment: IC25 growth inhibition; higher = less potent
Procedure, shortened: as §1

Parabacteroides merdae = experiment: IC25 growth inhibition; higher = less potent
Procedure, shortened: as §1

Escherichia coli ED1a = experiment: IC25 growth inhibition; higher = less potent
Procedure, shortened: as §1

[6] = tested on: Salmonella enterica typhimurium; experiment: IC25 growth inhibition; higher = less potent
Procedure, shortened: as §1

Eubacterium rectale = experiment: IC25 growth inhibition; higher = less potent
Procedure, shortened: as §1

Clostridium bolteae = experiment: IC25 growth inhibition; higher = less potent
Procedure, shortened: as §1

Vibrio cholerae = experiment: IC25 growth inhibition; higher = less potent
Procedure, shortened: as §1

[7] = tested on: Yersinia enterocolitica WA-314; experiment: IC25 growth inhibition; higher = less potent
Procedure, shortened: as §1

Dorea formicigenerans = experiment: IC25 growth inhibition; higher = less potent
Procedure, shortened: as §1

Roseburia intestinalis = experiment: IC25 growth inhibition; higher = less potent
Procedure, shortened: as §1

Streptococcus salivarius = experiment: IC25 growth inhibition; higher = less potent
Procedure, shortened: as §1

Bacteroides vulgatus = experiment: IC25 growth inhibition; higher = less potent
Procedure, shortened: as §1

Ruminococcus gnavus = experiment: IC25 growth inhibition; higher = less potent
Procedure, shortened: as §1

Clostridium perfringens = experiment: IC25 growth inhibition; higher = less potent
Procedure, shortened: as §1

[8] = tested on: Bacteroides thetaiotaomicron; experiment: IC25 growth inhibition; higher = less potent
Procedure, shortened: as §1

[9] = drug pretreatment concentration 10 µM
[10] = drug pretreatment concentration 20 µM
[11] = drug pretreatment concentration 40 µM
[12] = drug pretreatment concentration 80 µM
[13] = drug pretreatment concentration 160 µM
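Throughout, for IC25 growth inhibition: lowest concentration where monotonic median growth AUC falls below 0.75 of drug-free control.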

SMILES	community biomass OD578 [1, 9]	community biomass OD578 [1, 10]	community biomass OD578 [1, 11]	community biomass OD578 [1, 12]	community biomass OD578 [1, 13]	IC25 growth inhibition (Shigella flexneri)	IC25 growth inhibition (Bacteroides fragilis NT)	IC25 growth inhibition [2]	IC25 growth inhibition (Collinsella aerofaciens)	IC25 growth inhibition (Coprococcus comes)	IC25 growth inhibition [3]	IC25 growth inhibition (Clostridium ramosum)	IC25 growth inhibition [4]	IC25 growth inhibition (Bacteroides uniformis)	IC25 growth inhibition [5]	IC25 growth inhibition (Parabacteroides merdae)	IC25 growth inhibition (Escherichia coli ED1a)	IC25 growth inhibition [6]	IC25 growth inhibition (Eubacterium rectale)	IC25 growth inhibition (Clostridium bolteae)	IC25 growth inhibition (Vibrio cholerae)	IC25 growth inhibition [7]	IC25 growth inhibition (Dorea formicigenerans)	IC25 growth inhibition (Roseburia intestinalis)	IC25 growth inhibition (Streptococcus salivarius)	IC25 growth inhibition (Bacteroides vulgatus)	IC25 growth inhibition (Ruminococcus gnavus)	IC25 growth inhibition (Clostridium perfringens)	IC25 growth inhibition [8]	community biomass OD578 ([1]; drug pretreatment concentration 2.5 µM)	community biomass OD578 ([1]; drug pretreatment concentration 5 µM)
CC(CN1c2ccccc2Sc2ccccc21)N(C)C (configuration not stated) [Promethazine]	0.987	1.01	0.99	0.991	0.949	> 160 µM	≤ 160 µM	≤ 160 µM	> 160 µM	≤ 160 µM	> 160 µM	> 160 µM	> 160 µM	> 160 µM	> 160 µM	≤ 10 µM	> 160 µM	> 160 µM	≤ 160 µM	> 160 µM	≤ 160 µM	> 160 µM	≤ 160 µM	≤ 160 µM	≤ 160 µM	≤ 20 µM	≤ 160 µM	≤ 160 µM	≤ 80 µM	–	–
CNCCCC1c2ccccc2C=Cc2ccccc21 [Protriptyline]	0.995	1.02	1.01	0.991	0.956	> 160 µM	> 160 µM	> 160 µM	> 160 µM	> 160 µM	> 160 µM	> 160 µM	≤ 160 µM	≤ 160 µM	> 160 µM	> 160 µM	> 160 µM	> 160 µM	> 160 µM	> 160 µM	> 160 µM	≤ 160 µM	> 160 µM	> 160 µM	> 160 µM	≤ 40 µM	> 160 µM	> 160 µM	≤ 80 µM	–	–
O=C1NCCN1CCN1CCC(c2cn(-c3ccc(F)cc3)c3ccc(Cl)cc23)CC1 [Sertindole]	1.01	0.991	0.99	0.786	0.451	> 80 µM	≤ 40 µM	≤ 160 µM	≤ 40 µM	≤ 80 µM	≤ 40 µM	≤ 80 µM	≤ 40 µM	≤ 20 µM	≤ 80 µM	≤ 40 µM	> 160 µM	> 160 µM	≤ 20 µM	≤ 80 µM	≤ 80 µM	> 80 µM	≤ 20 µM	≤ 20 µM	≤ 20 µM	≤ 20 µM	≤ 40 µM	≤ 80 µM	≤ 40 µM	–	–
CCC(C)(C)C(=O)O[C@H]1C[C@@H](C)C=C2C=C[C@H](C)[C@H](CC[C@@H]3C[C@@H](O)CC(=O)O3)[C@H]21 [Simvastatin]	–	0.99	0.946	0.844	0.687	> 80 µM	≤ 40 µM	> 80 µM	≤ 80 µM	> 80 µM	≤ 80 µM	≤ 40 µM	> 80 µM	≤ 40 µM	≤ 80 µM	≤ 40 µM	> 160 µM	> 80 µM	≤ 20 µM	> 80 µM	> 80 µM	> 80 µM	≤ 80 µM	≤ 20 µM	≤ 20 µM	≤ 20 µM	≤ 40 µM	≤ 40 µM	≤ 40 µM	–	–
CN(N=O)C(=O)N[C@@H](C=O)[C@@H](O)[C@H](O)[C@H](O)CO [Streptozotocin]	0.909	0.921	0.872	0.859	0.889	≤ 2.5 µM	≤ 20 µM	≤ 2.5 µM	≤ 10 µM	≤ 2.5 µM	< 1.25 µM	< 1.25 µM	< 1.25 µM	≤ 40 µM	≤ 20 µM	≤ 20 µM	≤ 2.5 µM	≤ 10 µM	> 160 µM	≤ 2.5 µM	≤ 2.5 µM	≤ 2.5 µM	> 160 µM	< 1.25 µM	> 160 µM	≤ 20 µM	< 1.25 µM	> 160 µM	≤ 40 µM	–	–
CC/C(=C(\c1ccccc1)c1ccc(OCCN(C)C)cc1)c1ccccc1 [Tamoxifen]	1	0.977	0.719	–	–	> 40 µM	> 40 µM	> 40 µM	≤ 40 µM	> 40 µM	> 40 µM	> 40 µM	> 40 µM	≤ 40 µM	> 40 µM	> 40 µM	> 40 µM	> 40 µM	≤ 5 µM	> 40 µM	> 40 µM	> 40 µM	≤ 20 µM	≤ 20 µM	> 40 µM	> 40 µM	≤ 40 µM	> 40 µM	≤ 40 µM	1	1.01
C[C@]1(Cn2ccnn2)[C@H](C(=O)O)N2C(=O)C[C@H]2S1(=O)=O [Tazobactam]	0.834	0.79	0.716	0.733	0.722	≤ 160 µM	≤ 10 µM	> 160 µM	≤ 160 µM	≤ 80 µM	≤ 80 µM	> 160 µM	≤ 20 µM	≤ 5 µM	≤ 40 µM	≤ 10 µM	≤ 160 µM	≤ 160 µM	≤ 5 µM	> 160 µM	> 160 µM	> 160 µM	≤ 20 µM	≤ 40 µM	≤ 160 µM	≤ 10 µM	≤ 160 µM	≤ 80 µM	≤ 20 µM	–	–
